# From PubChem BioAssay AID2060499 (Molecular Pharmacology Branch, DTP, NCI, 2025)
# System: 777334-354-R2-J4-PDC tumor spheroids with HUVEC/MSC, viability
# Assay: Anticancer human tumor 777334-354-R2-J4-PDC patient-derived pancreatic adenocarcinoma cell line growth inhibition [GQUAD]
# Details: for IC50: curve of first compound; for viability, T/C: stronger effect = lower value
# From the text: DNA G-quadruplex Stabilizer Agents in Combinations in Complex Spheroids
# A high-throughput screen of multi-cell type tumor spheroids was designed to identify active combinations of DNA G-quadruplex stabilizer agents and targeted small molecules. Complex spheroids include a stromal component modeled by human endothelial cells (HUVEC) and fibroblasts modeled by human mesenchymal stem cells (MSCs). The concentration ranges selected for each drug and investigational agent were based upon clinically achievable concentrations if the clinical Cmax of the agent was known.
# Compounds. The drugs and investigational agents: pidnarulex (CX-5461; NSC782164), APTO-253 (NSC789042), BRACO-19 (NSC847499), peposertib (NSC802822), ceralasertib (NSC780249), elimusertib (NSC800525), camonsertib (NSC841442), AZD-1390 (NSC803789), olaparib (NSC753686), talazoparib (NSC767125), ART-558 (NSC835418), sotorasib (NSC818433), MRTX-1133 (NSC836407), SN-38 (NSC673596), topotecan (NSC609699), etoposide (NSC141540), doxorubicin (NSC123127), gemcitabine (NSC613327), 5-fluorouracil (NSC19893), paclitaxel (NSC125973), vemurafenib (NSC761431), panobinostat (NSC761190), R-306465 (JNJ-16241199; NSC773264), adavosertib (NSC754352), TP-3654 (NSC805149), carboplatin (NSC241240), KSQ-4279 (NSC840948), and staurosporine (NSC755774) were obtained from the National Cancer Institute (NCI) Developmental Therapeutics Program Chemical Repository (34). The FDA-approved anticancer drug set is available from the NCI Developmental Therapeutics Program. […] The stock solutions were prepared in dimethyl sulfoxide (DMSO, Sigma-Aldrich, St. Louis, MO, cat. D2650) at 800-fold the tested concentration and stored at -70 degrees C prior to their use. All drugs and investigational agents were tested over a range starting from a high concentration at or near the clinical Cmax and decreasing in half-log increments. If the clinical Cmax for an agent had not been determined, the highest concentration tested was 10 microM.
# 2.3 Cell Culture. All cells were maintained in an incubator at 37 degrees C and 5% CO2 with 95% humidity. The PDC lines were cultured according to standard operating procedures established by the NCI PDMR. All PDCs were thawed and cultured in Matrigel-coated flasks prepared with a working solution of 1X Ham's F-12 nutrient mix, without supplementation (Invitrogen, cat. 11765054), 100 U/mL penicillin-streptomycin (Invitrogen, cat. 15140122), and 2.5% Matrigel (Corning Inc., cat. 354248) for the first three passages. The 857933-349-R-J2-PDC line was cultured in 6C/Colon 1B media, which includes advanced DMEM/F-12 (Thermo Fisher Scientific, cat. 12634028), 10 mM HEPES (Thermo Fisher Scientific, cat. 15630080), 1X GlutaMAX supplement (Thermo Fisher Scientific, cat. 35050061), 0.1 mg/mL primocin (InvivoGen, cat. ant-pm-2), 10% defined fetal bovine serum, heat inactivated (HyClone Laboratories Inc., cat. SH30070.03HI), 50% L-WRN conditioned media (ATCC, cat. CRL-3276), 1.25 mM N-Acetyl-L-cysteine (Sigma-Aldrich, cat. A9165), 10 mM nicotinamide (Sigma-Aldrich, cat. N0636), 1X B-27 supplement (Thermo Fisher Scientific, cat. 17504044), 1X N-2 supplement (Thermo Fisher Scientific, cat. 17502048), 10 microM Y-27632 dihydrochloride (Tocris Bioscience, cat. 1254), and 50 ng/mL human EGF recombinant protein (Thermo Fisher Scientific, cat. PHG0311). The 485176-168-R4-J1-PDC line was cultured in Panc media, which includes all 6C/Colon 1B media components plus 100 ng/mL human FGF-10 (Thermo Fisher Scientific, cat. 100-26), 500 nM SB-431542 (Selleckchem, cat. S1067), and gastrin (Tocris, cat. 3006).
# […]
# 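Further: spheroids exposed to compounds for 7 days before readout.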
structure (smiles),measurement,setting,value
C=CC(=O)N1CCN(c2nc(=O)n(-c3c(C)ccnc3C(C)C)c3nc(-c4c(O)cccc4F)c(F)cc23)C(C)C1 (configuration not stated) + Cc1cnc(CNC(=O)c2c(=O)c3ccc(N4CCCN(C)CC4)nc3n3c2sc2ccccc23)cn1,IC50,second compound 0.0316 µM,> 10 µM
same,IC50,second compound 0.1 µM,> 10 µM
same,IC50,second compound 0.316 µM,> 10 µM
same,IC50,second compound 1 µM,> 10 µM
same,IC50,second compound 3.16 µM,> 10 µM
same,IC50,second compound 10 µM,> 10 µM
same,"viability, T/C","second compound 0.0316 µM, first compound 0.0316 µM",106%
same,"viability, T/C","second compound 0.0316 µM, first compound 0.1 µM",75.7%
same,"viability, T/C","second compound 0.0316 µM, first compound 0.316 µM",96.2%
same,"viability, T/C","second compound 0.0316 µM, first compound 1 µM",106%
same,"viability, T/C","second compound 0.0316 µM, first compound 3.16 µM",110%
same,"viability, T/C","second compound 0.0316 µM, first compound 10 µM",97.2%
same,"viability, T/C","second compound 0.1 µM, first compound 0.0316 µM",95.3%
same,"viability, T/C","second compound 0.1 µM, first compound 0.1 µM",79.4%
same,"viability, T/C","second compound 0.1 µM, first compound 0.316 µM",90.2%
same,"viability, T/C","second compound 0.1 µM, first compound 1 µM",89.9%
same,"viability, T/C","second compound 0.1 µM, first compound 3.16 µM",109%
same,"viability, T/C","second compound 0.1 µM, first compound 10 µM",81.2%
same,"viability, T/C","second compound 0.316 µM, first compound 0.0316 µM",81.2%
same,"viability, T/C","second compound 0.316 µM, first compound 0.1 µM",91.3%
same,"viability, T/C","second compound 0.316 µM, first compound 0.316 µM",87.7%
same,"viability, T/C","second compound 0.316 µM, first compound 1 µM",104%
same,"viability, T/C","second compound 0.316 µM, first compound 3.16 µM",90.7%
same,"viability, T/C","second compound 0.316 µM, first compound 10 µM",76.3%
same,"viability, T/C","second compound 1 µM, first compound 0.0316 µM",73.7%
same,"viability, T/C","second compound 1 µM, first compound 0.1 µM",74.1%
same,"viability, T/C","second compound 1 µM, first compound 0.316 µM",69.9%
same,"viability, T/C","second compound 1 µM, first compound 1 µM",81.4%
same,"viability, T/C","second compound 1 µM, first compound 3.16 µM",82.9%
same,"viability, T/C","second compound 1 µM, first compound 10 µM",71.5%
same,"viability, T/C","second compound 3.16 µM, first compound 0.0316 µM",61.8%
same,"viability, T/C","second compound 3.16 µM, first compound 0.1 µM",60.8%
same,"viability, T/C","second compound 3.16 µM, first compound 0.316 µM",62.5%
same,"viability, T/C","second compound 3.16 µM, first compound 1 µM",66.8%
same,"viability, T/C","second compound 3.16 µM, first compound 3.16 µM",76.9%
same,"viability, T/C","second compound 3.16 µM, first compound 10 µM",55.3%
same,"viability, T/C","second compound 10 µM, first compound 0.0316 µM",56.6%
same,"viability, T/C","second compound 10 µM, first compound 0.1 µM",55.3%
same,"viability, T/C","second compound 10 µM, first compound 0.316 µM",58.6%
same,"viability, T/C","second compound 10 µM, first compound 1 µM",70%
same,"viability, T/C","second compound 10 µM, first compound 3.16 µM",64.5%
same,"viability, T/C","second compound 10 µM, first compound 10 µM",49.9%
